Measurements published in patent publication US10111885B2, “Compositions and therapeutic methods for the treatment of complement-associated diseases” (Resverlogix Corp., priority 2015, dated 2018).
Where two headings read alike, the source gives them in different places.

How the values were obtained:
[1] = tested on: C3 mRNA; assay: Complement gene mRNA expression, TaqMan real-time PCR, Huh-7 cells; type: cell-based, human; details: Homo sapiens
Excerpt: (§1) In this example, mRNA levels from cultured cells were quantitated. The assay can be used to determine the effect of compound(s) on regulating mRNA levels, including those compounds in the present invention. Complement genes are expressed at high endogenous levels, but their expression can also be stimulated with various cytokines in inflammatory conditions. Experiments in this example target both basal and inflammatory complement gene expression. Compound mediated changes in gene expression and resulting mRNA levels are presented in Tables 2, 3 and 4 as well as FIGS. 1, 2, 3 and 4 below.
(§2) Huh-7 and HepG2 cells are liver-derived cell lines and are models for what can occur in the liver. Huh-7 cells (JCRB Cell Bank) were introduced to 96-well plates (^˜2.5×10^5 per well) in 100 μL DMEM containing 10% (v/v) FBS, 100 U/mL penicillin, 100 ug/mL streptomycin and 5 ug/mL plasmocin (all reagents from Gibco, except for the former, which was obtained from Invivogen). After 24 h, Huh-7 cells were treated with compounds in the same media formulation used for plating, and supplemented with 0.1% DMSO for the amount of time indicated in tables 2, 3, and 4. For select experiments, 24 h post-plating, cells were treated with cytokines and the compound of interest simultaneously, for a total treatment time of 48 h. Alternatively, 24 h after plating, cells were pre-treated with cytokines for 24 h before adding the compound of interest for 48 h. HepG2 cells (ATCC) were cultured in 96-well plates (^˜2.5×10^5 per well) in MEM containing 10% FBS, 1× non-essential amino acids, 1 mM sodium pyruvate, 2 mM L-glutamine, 100 U/mL penicillin, 100 ug/mL streptomycin and 5 ug/mL plasmocin. Serum amount was reduced to 0.5% for treatments with compound or cytokines. Timing of treatment of HepG2 cells with compounds and cytokines was as described for Huh-7 cells. Primary human hepatocytes (CellzDirect/Life Technologies) were plated in collagen coated 96-well plates at 70 000 cells/well, then overlaid with Matrigel™ as recommended by the supplier. Cells were treated with compounds of interest and/or cytokines for the indicated time points in the recommended media supplemented with 0.1% DMSO and 10% FBS (v/v). Cells were harvested by mRNA Catcher PLUS Kit (Life Technologies) followed by real-time PCR using the RNA UltraSense One-Step qRT-PCR System. The level of the mRNA of interest was measured by TaqMan real-time PCR relative to the endogenous control cyclophilin A in the same sample. Data were acquired using the ViiA-7 Real Time PCR System (Applied Biosystems).
(§3) Downregulation of expression of components of the complement cascade will result in reduced activity of the pathway and thus will constitute a positive result. Tables 2 and 3 list the concentration of compounds at which the level of the indicated mRNA is reduced by 50%, as well as the duration of treatment with compound. Table 4 lists the maximum reduction in the indicated mRNA measured in primary human hepatocytes treated with compounds for up to 72 hours. FIGS. 1, 2, 3 and 4 show effects of compounds on cytokine-induced (i.e. inflammatory) expression of complement genes in Huh-7 cells and HepG2 cells.

[2] = tested on: C4a/C4b mRNA; assay: as above; type: cell-based, human; details: Homo sapiens
Excerpt: as §1, §2, §3

[3] = tested on: C5 mRNA; assay: as above; type: cell-based, human; details: Homo sapiens; Huh-7, 48 h treatment; read-out: C5 (48 h) mRNA, half maximal inhibitory concentration (IC50)
Excerpt: as §1, §2, §3

[4] = tested on: erythrocyte lysis; details: erythrocyte lysis animal model; cited from earlier work
[5] = tested on: ex vivo perfused pig xenografts; details: porcine-to-human kidney perfusion animal model; cited from earlier work
[6] = hereditary angioedema; cited from earlier work
[7] = Huh-7, 48 h treatment (Table 3), read-out: mRNA expression in Huh-7 cells: IC50 (uM), C3
[8] = Huh-7, 48 h treatment (Table 3), read-out: mRNA expression in Huh-7 cells: IC50 (uM), C4
[9] = Huh-7, 48 h treatment, read-out: C3 (48 h) mRNA, half maximal inhibitory concentration (IC50)
[10] = Huh-7, 48 h treatment, read-out: C4a/C4b (48 h) mRNA, half maximal inhibitory concentration (IC50)

Row | IC50 [1, 7] [µM] | IC50 [2, 8] [µM] | Molecule | further results
1 | 3.6 | 9.3 | COc1cc(OC)c2c(=O)[nH]c(-c3cc(C)c(O)c(C)c3)nc2c1 [RVX000206] | 
2 | 20.4 | 17.4 | COc1cc(OC)c2c(=O)[nH]c(-c3ccc(N4CCN(C)CC4)cc3)nc2c1 [RVX000255, 5,7-dimethoxy-2-(4-(4-methylpiperazin-1-yl)phenyl)quinazolin-4(3H)-one] | 
3 |  |  | COc1cc(OC)c2c(=O)[nH]c(-c3cc(C)c(OCCN4CCCC4)c(C)c3)nc2c1 [RVX000297] | IC50 [1, 9]: 4.7 µM; IC50 [2, 10]: 4.5 µM; IC50 [3]: > 10 µM
4 | 11.6 | 15.6 | COc1cc(OC)c2c(=O)[nH]c(-c3cc(C)c(OCC(O)CO)c(C)c3)nc2c1 (stereo not drawn) [RVX000344] | 
5 | 12.6 | 9.3 | COc1cc(OCCN2CCCC2)cc(-c2nc3cc(OC)cc(OC)c3c(=O)[nH]2)c1 [RVX000641] | 
6 | 29.2 | 21.1 | COc1cc(OC)c2c(=O)[nH]c(-c3cc(C)c(OCCN4CCCC4)c(C)c3)nc2n1 [RVX000662] | 
7 | 9.5 | 15.6 | COc1cc(OC)c2c(=O)[nH]c(-c3ccc4[nH]c(CN(C)C)cc4c3)nc2c1 [RVX000668] | 
8 | 11.1 | > 50 | COc1cc(OC)c2c(=O)[nH]c(-c3cc(C)c(OCCN4CCC(F)(F)C4)c(C)c3)nc2c1 [RVX000843] | 
9 | 18.5 | 17.2 | COc1cc(OC)c2c(=O)[nH]c(-c3cc(C)c(OCCNS(C)(=O)=O)c(C)c3)nc2c1 [RVX002093, N-(2-(4-(5,7-dimethoxy-4-oxo-3,4-dihydroquinazolin-2-yl)-2,6-dimethylphenoxy)ethyl)methanesulfonamide] | 
10 | 11.3 | 22 | COc1cc(OC)c2c(=O)[nH]c(-c3cc(C)c(OCCNC(C)=O)c(C)c3)nc2c1 [RVX002101] | 
11 | 13.9 | 13.8 | COc1cc(OC)c2c(=O)[nH]c(-c3cc(C)c(OCCNC(=O)C(C)C)c(C)c3)nc2c1 [RVX002103] | 
12 |  |  | COc1cc(OC)c2c(=O)[nH]c(-c3ccc(N4CCN(C(C)C)CC4)cc3)nc2c1 [RVX002109] | IC50 [1, 9]: 34.8 µM; IC50 [2, 10]: 62.2 µM; IC50 [3]: > 50 µM
13 | 5.8 | 7.8 | COC(=O)NCCOc1c(C)cc(-c2nc3cc(OC)cc(OC)c3c(=O)[nH]2)cc1C [RVX002113] | 
14 |  |  | COc1cc(OC)c2c(=O)[nH]c(-c3cc(C)c(OCCNC(C)C)c(C)c3)nc2c1 [RVX002135] | IC50 [1, 9]: 2.2 µM; IC50 [2, 10]: 4.3 µM; IC50 [3]: 37.9 µM
15 | 15.4 | 17.8 | COc1cc(OC)c2c(=O)[nH]c(-c3ccc(N4CCNCC4)cc3)nc2c1 [RVX002141] | 
16 |  |  | CC[C@H](C)[C@H](N)C(=O)N[C@H]1CSSC[C@@H](C(=O)N[C@H](C(N)=O)[C@@H](C)O)NC(=O)[C@H](CCCN=C(N)N)NC(=O)[C@H](Cc2cnc[nH]2)NC(=O)[C@H](Cc2cnc[nH]2)NC(=O)CNC(=O)[C@H](Cc2c[nH]c3ccccc23)NC(=O)[C@H](CC(=O)O)NC(=O)[C@H](CCC(N)=O)NC(=O)[C@H](C(C)C)NC(=O)[C@H](C(C)C)NC1=O [compstatin] | reduction of hemolysis [4]: 50%; graft survival [5]: prolonged graft survival
17 |  |  | Recombinant human C1INH: recombinant human C1 esterase inhibitor (protein, UniProt P05155 23-500, looked up) Plasma protease C1 inhibitor: NPNATSSSSQDPESLQDRGEGKVATTVISKMLFVEPILEVSSLPTTNSTTNSATKITANTTDEPTTQPTTEPTTQPTIQPTQPTTQLPTDSPTQPTTGSFCPGPVTLCSDLESHSTEAVLGDALVDFSLKLYHAFSAMKKVETNMAFSPFSIASLLTQVLLGAGENTKTNLESILSYPKDFTCVHQALKGFTTKGVTSVSQIFHSPDLAIRDTFVNASRTLYSSSPRVLSNNSDANLELINTWVAKNTNNKISRLLDSLPSDTRLVLLNAIYLSAKWKTTFDPKKTRMEPFHFKNSVIKVPMMNSKKYPVAHFIDQTLKAKVGQLQLSHNLSLVILVPQNLKHRLEDMEQALSPSVFKAIMEKLEMSKFQPTLLTLPRIKVTTSQDMLSIMEKLEFFDFSYDLNLCGLTEDPDLQVSAMQHQTVLELTETGVEAAAASAISVARTLLVFEVQQPFLFVLWDQQHKFPVFMGRVYDPRA | symptoms of repeat HAE attacks [6]: effective in improving symptoms
